{
  "source": "paper PMC9482650",
  "about": "“Quantitative fragmentomics allow affinity mapping of interactomes” (Nature Communications, 2022)",
  "key": {"MAGI1_2 PDZ": {"biological_target": "MAGI1_2 PDZ (Homo sapiens, UniProt Q96QZ7)", "sequence (Q96QZ7 472-554 limits assumed)": "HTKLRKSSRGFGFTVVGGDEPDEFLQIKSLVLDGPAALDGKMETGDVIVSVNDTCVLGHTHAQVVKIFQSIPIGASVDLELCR", "experiment": "Competitive fluorescence polarization (FP) assay", "type": "binding", "details": "read-out: pKd FP (converted)", "experimental": "In direct fluorescence polarization assay, the fluorophore label can interfere with affinity determination and can cause large experimental bias. For this reason, affinities were determined with competitive FP measurements where the bound fluorescent peptide is chased out by increasing concentration of unlabeled competitor. In the fitting procedure, affinities of both peptides are considered. Each PDZ-domain was first tested with labeled peptides in direct experiments and then optimal labeled peptides were used in competitive experiments.\nDouble affinity-purified His6-MBP-PDZ were used for affinity measurements by FP. Fluorescence polarization was measured with a PHERAstar microplate reader by using 485 ± 20 nm and 528 ± 20 nm band-pass filters for excitation and emission, respectively. […] In total, the polarization of the probe was measured at eight different protein concentrations (whereas one contained no protein and corresponded to the free peptide). […] The dissociation constants of the direct and competitive FP experiments were obtained by fitting the measured direct data with a quadratic binding equation first and by fitting the measured competitive data with a competitive equation, using several obtained parameters from the first fit[71]. In part, competitive fluorescence polarization data were taken from refs. [22],[21]. […]"}, "HaCat cell extract preys": {"tested_on": "HaCat cell extract preys", "experiment": "PDZ-AP-MS, biotinylated MBP-PDZ baits", "type": "binding, human", "experimental": "(§1) For PDZ-AP-MS experiments, PDZ domains were cloned as His6-AviTag-MBP-PDZ constructs. For co-expression with BirA, E. coli BL21(DE3) cells were co-transformed with His6-AviTag-MBP, or His6-AviTag-MBP-PDZ-coding and PET21a-BirA (Addgene #20857) plasmids. Simultaneously to IPTG induction, 50 µM biotin was added to the media. After cell harvesting, the lysis buffer was also supplemented with 50 µM biotin. Otherwise, expression and double affinity purification was identical as previously described in details.\n(§2) For PBM-AP-MS experiments, 30 μl streptavidin resin was mixed with biotin or peptide at 50–60 μM concentration in 6–6.5 resin volume for 60 min to achieve resin saturation. For PDZ-AP-MS experiments, 30 μl streptavidin resin was mixed with biotinylated MBP or MBP-PDZ at 40-50 μM concentration in >1000× resin volume for 60 min to achieve resin saturation. After saturation, resins were washed a single time (ten resin volume, holdup buffer), and were depleted with biotin (1 mM biotin, 5–10 resin volume, 10 min). Finally, resins were washed two times. 0.5 ml 2 mg/ml cell lysate was added to the dry resin (1 mg total input) and were incubated at 4 °C for 2 h. Then, the beads were washed three times with 10 resin volume buffer containing: 50 mM TRIS pH 8.5, 150 mM NaCl, 1% TritonX-100, 10× complete EDTA-free protease inhibitor cocktail, 2 mM EDTA, 1 mM TCEP. Then, the beads were washed two times with ten resin volume buffer containing: 50 mM TRIS pH 8.5, 150 mM NaCl, 1 mM TCEP. Finally, captured protein was eluted from the resin in two steps and the eluted fractions were pooled. For each elution the beads were incubated for 30 min with three resin volume buffer containing: 20 mM TRIS pH8.5, 100 mM NaCl, 500 μM TCEP, 8 M Urea. Between each step, the beads were separated by mild centrifugation and the supernatant was removed by gentle pipetting.\n(§3) The samples were precipitated with TCA 20% overnight at 4 °C and centrifuged at 14,000 rpm for 10 min at 4 °C. The protein pellets were washed twice with 1 mL cold acetone and air dried. The protein extracts were solubilized in urea 8 M, reduced with 5 mM TCEP for 30 min, and alkylated with 10 mM iodoacetamide for 30 min in the dark. Double digestion was performed at 37 °C with 500 ng endoproteinase Lys-C for 4 h, followed by fourfold dilution and an overnight digestion with 500 ng trypsin. Peptide mixtures were then desalted on C18 spin-column and dried on Speed-Vacuum.\n(§4) Samples were analyzed using an Ultimate 3000 nano-RSLC (Thermo Scientific, San Jose California) coupled in line with a LTQ-Orbitrap ELITE mass spectrometer via a nano-electrospray ionization source (Thermo Scientific, San Jose California). […]"}, "SYNJ2BP PDZ": {"biological_target": "SYNJ2BP PDZ (Homo sapiens, UniProt P57105)", "sequence (P57105 13-100 limits assumed)": "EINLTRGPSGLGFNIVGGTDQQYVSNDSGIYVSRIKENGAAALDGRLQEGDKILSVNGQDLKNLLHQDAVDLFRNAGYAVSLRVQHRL", "experiment": "Holdup assay", "type": "binding"}, "[1]": {"tested_on": "Jurkat cell extract preys", "experiment": "PDZ-AP-MS, biotinylated MBP-PDZ baits", "type": "binding, human", "experimental": "as §1, §2, §3, §4"}, "MPP7": {"tested_on": "MPP7", "experiment": "PBM-AP-MS from HaCat extract", "type": "binding, Homo sapiens", "details": "prey MPP7 (Q5T2T1), PBM bait vs biotin control (Biot03)"}, "LIN7C [2]": {"tested_on": "LIN7C", "experiment": "PBM-AP-MS from Jurkat extract", "type": "binding, Homo sapiens", "details": "Jurkat extract; prey LIN7C (Q9NUP9); PBM bait vs biotin control"}, "MAGI1": {"tested_on": "MAGI1", "experiment": "PBM-AP-MS from Jurkat extract", "type": "binding, Homo sapiens", "details": "Jurkat extract; prey MAGI1 (Q96QZ7); PBM bait vs biotin control"}, "SCRIB": {"tested_on": "SCRIB", "experiment": "PBM-AP-MS from Jurkat extract", "type": "binding, Homo sapiens", "details": "Jurkat extract; prey SCRIB (Q14160); PBM bait vs biotin control"}, "DLG1": {"tested_on": "DLG1", "experiment": "PBM-AP-MS from Jurkat extract", "type": "binding, Homo sapiens", "details": "Jurkat extract; prey DLG1 (Q12959); PBM bait vs biotin control"}, "CASK": {"tested_on": "CASK", "experiment": "PBM-AP-MS from HaCat extract", "type": "binding, Homo sapiens", "details": "prey CASK (O14936), PBM bait vs biotin control (Biot03)"}, "LIN7C [3]": {"tested_on": "LIN7C", "experiment": "PBM-AP-MS from HaCat extract", "type": "binding, Homo sapiens", "details": "prey LIN7C (Q9NUP9), PBM bait vs biotin control (Biot03)"}, "MPP5 [4]": {"tested_on": "MPP5", "experiment": "PBM-AP-MS from Jurkat extract", "type": "binding, Homo sapiens", "details": "prey MPP5 (Q8N3R9), PBM bait vs biotin control", "description": "Supplement 41467_2022_33018_MOESM5_ESM.xlsx, sheet \"Jurkat HPV59-E6\" | column: -LOG(P-Value); Difference log2; Ratio HPV59/biot"}, "MPP5 [5]": {"tested_on": "MPP5", "experiment": "PBM-AP-MS from HaCat extract", "type": "binding, Homo sapiens", "details": "prey MPP5 (Q8N3R9), PBM bait vs biotin control (Biot03)", "description": "(§5) Supplement 41467_2022_33018_MOESM5_ESM.xlsx, sheet \"HaCat HPV59-E6\" | column: -LOG(P-value); Difference log2; Ratio HPV59E6/Biot03"}, "MAGI3": {"tested_on": "MAGI3", "experiment": "PBM-AP-MS from HaCat extract", "type": "binding, Homo sapiens", "details": "prey MAGI3 (Q5TCQ9), PBM bait vs biotin control (Biot03)", "description": "as §5"}},
  "note": "Primed or numbered codes have the meaning given here. Ends that are not written are not given here. * marks the point of attachment. Biotin = O=C1N[C@H]2[C@H](CS[C@H]2CCCCC(=O)*)N1; ttds″ = trioxatridecan-succinamic acid linker",
  "data": [
    {"molecule": "CC(C)C[C@H](NC(=O)[C@H](CCC(N)=O)NC(=O)[C@@H](NC(=O)[C@H](CCC(=O)O)NC(=O)[C@H](CCCNC(=N)N)NC(=O)[C@H](CCCNC(=N)N)NC(=O)[C@@H](NC(=O)[C@H](CCCNC(=N)N)NC(=O)[C@H](CO)NC(=O)[C@H](CO)NC(=O)CCC(=O)NCCCOCCOCCOCCCNC(=O)CCCC[C@@H]1SC[C@@H]2NC(=O)N[C@@H]21)[C@@H](C)O)[C@@H](C)OP(=O)(O)O)C(=O)O", "note": "[HPV16-E6_-2P]", "values": [
      {"measurement": "Kd", "setting": "MAGI1_2 PDZ", "result": 2.52, "unit": "mM"}
    ]},
    {"molecule": "EXOC1", "values": [
      {"measurement": "Difference log2", "setting": "HaCat cell extract preys; bait DLG1_2 PDZ vs MBP, enrichment of prey", "result": 4.458},
      {"measurement": "Ratio DLG1_2/MBP", "setting": "HaCat cell extract preys; bait DLG1_2 PDZ, fold change of prey", "result": 21.9853}
    ]},
    {"molecule": "CC(C)C[C@H](NC(=O)[C@H](CCC(N)=O)NC(=O)[C@@H](NC(=O)[C@H](CCC(=O)O)NC(=O)[C@H](CCCNC(=N)N)NC(=O)[C@H](CCCNC(=N)N)NC(=O)[C@@H](NC(=O)[C@H](CCCNC(=N)N)NC(=O)[C@H](CO)NC(=O)[C@@H](N)CO)[C@@H](C)O)[C@@H](C)O)C(=O)O", "note": "[HPV16E6]", "values": [
      {"measurement": "Kd", "setting": "SYNJ2BP PDZ", "result": 6.56, "unit": "µM"}
    ]},
    {"molecule": "ANXA2", "values": [
      {"measurement": "Difference log2", "setting": "[1]; bait SCRIB_2 PDZ vs MBP, enrichment of prey", "result": 5.895},
      {"measurement": "Ratio SCRIB_2/MBP", "setting": "[1]; bait SCRIB_2 PDZ, fold change of prey", "result": 59.5253}
    ]},
    {"molecule": "HPV59-E6 ({Biotin-ttds″}-QRQARSETLV)", "values": [
      {"measurement": "Difference log2", "setting": "MPP7", "result": 5.592},
      {"measurement": "Ratio bait/Biot03", "setting": "MPP7", "result": 48.2208},
      {"measurement": "Difference log2", "setting": "LIN7C [2]", "result": 5.541},
      {"measurement": "Ratio bait/biot", "setting": "LIN7C [2]", "result": 46.5688},
      {"measurement": "Difference log2", "setting": "MAGI1", "result": 6.509},
      {"measurement": "Ratio bait/biot", "setting": "MAGI1", "result": 91.0533},
      {"measurement": "Difference log2", "setting": "SCRIB", "result": 4.363},
      {"measurement": "Ratio bait/biot", "setting": "SCRIB", "result": 20.5739},
      {"measurement": "Difference log2", "setting": "DLG1", "result": 9.078},
      {"measurement": "Ratio bait/biot", "setting": "DLG1", "result": 540.448},
      {"measurement": "Difference log2", "setting": "CASK", "result": 7.278},
      {"measurement": "Ratio bait/Biot03", "setting": "CASK", "result": 155.163},
      {"measurement": "Difference log2", "setting": "LIN7C [3]", "result": 8.47},
      {"measurement": "Ratio bait/Biot03", "setting": "LIN7C [3]", "result": 354.524},
      {"measurement": "Difference log2", "setting": "MPP5 [4]", "result": 4.755},
      {"measurement": "Ratio bait/biot", "setting": "MPP5 [4]", "result": 26.9941},
      {"measurement": "Difference log2", "setting": "MPP5 [5]", "result": 3.6952},
      {"measurement": "Ratio bait/Biot03", "setting": "MPP5 [5]", "result": 12.9528},
      {"measurement": "Difference log2", "setting": "MAGI3", "result": 2.908},
      {"measurement": "Ratio bait/Biot03", "setting": "MAGI3", "result": 7.505}
    ]}
  ]
}
